According to patent publication US7005271B1, “Method for the determination of the prethrombotic state” (priority 1994, dated 2006):

Assays:
U937 cells = experiment: DNA analysis by flow cytometry of U937 cells after apoptosis induction; assay type: cell-based; conditions: 40 μM 7β hydroxycholesterol
Procedure: U937 cells are grown in a humidified 5% CO2 atmosphere at 37° C., using RPMI 1640 medium with Glutamax-I, supplemented with 10% heat-inactivated fetal calf serum, 1 mM sodium pyruvate, non-essential amino acids and gentamicin icin at 5 μg/mL Cells are usually plated at an initial conentration of 1.10^5/ml. Apoptosis induction is achieved by 40 μM 7β hydroxycholesterol- or 5 μg/ml actinomycin D-treatment of U937 cells at 37° C. during 8 to 24 hours. Cells have to be seeded at 3 to 4.10^5 cells per ml 6 h before treatment. Cell supernatant is obtained by centrifugation of treated cells at 500 g during 7 min and CaCl2 is added to a final concentration of 10 mM before addition of 200 μl/well of supernatant. For each experiment, a control without 7β hydroxycholesterol or actinomycin D has to be performed and culture medium containing 10% fetal calf serum should also be tested. It has to be emphasized that the content of microparticles of 10% fetal calf serum was low, probably due to removal of most of the cell fragments at sterilizing ultrafiltration. The amount of captured microparticles is determined using the prothrombinase assay.
The Prothrombinase Activity is Correlated with DNA Analysis by Flow Cytometry (Table 2)

[1] = Storage stability of biotinylated annexin V; assay type: physicochemical
Procedure: After 90 min at 25° C., the reaction is stopped by adding IM Lysine/HCl to a final concentration of 10 mM. The biotinylated annexin V is finally dialysed overnight at 4° C. against Storage buffer.

| Compound | % of hypodiploid DNA (U937 cells; 0 h treatment) [%] | % of hypodiploid DNA (U937 cells; 8 h treatment) [%] | % of hypodiploid DNA (U937 cells; 10 h treatment) [%] | % of hypodiploid DNA (U937 cells; 12 h treatment) [%] | % of hypodiploid DNA (U937 cells; 20 h treatment) [%] | % of hypodiploid DNA (U937 cells; 22 h treatment) [%] | storage stability ([1]; stored below 0° C.) | storage stability (anti-phospholipid potential) ([1]; stored for months at −80° C.) |
| --- | --- | --- | --- | --- | --- | --- | --- | --- |
| CC(C)CCC[C@@H](C)[C@H]1CC[C@H]2[C@@H]3[C@@H](O)C=C4C[C@@H](O)CC[C@]4(C)[C@H]3CC[C@]12C [7β-hydroxycholesterol] | 2.75 | 9.43 | 12.58 | 18.31 | 35.03 | 41.54 | – | – |
| annexin-V^Bi: Human placenta annexin V biotinylated with biotin-X-OSu, insolubilized onto streptavidin-coated plates as capture receptor | – | – | – | – | – | – | stable for weeks | without detectable loss of anti-phospholipid potential |
